Source: patent publication US20240208932A1, “ARYLAMINO DERIVATIVE ESTROGEN RECEPTOR MODULATOR AND USE THEREOF” (XIZANG HAISCO PHARMACEUTICAL CO., LTD., priority 2021, published 2024)

Tests used:
[1] = target: ERα (Homo sapiens (Human), UniProt P03372); assay: Degradation effect of compounds on ERα in MCF-7 and CAMA-1 cells (automated western blot, 24 h); type: cell-based; settings: ERα degradation in MCF-7 cells; for DC50: 24 hours; for Dmax at 0.1 µM: MCF7, @100 nM
Experimental: 2. Degradation Effect of Compounds on ERα in MCF-7 and CAMA-1 Cells
Breast cancer cells MCF-7 and CAMA-1 were purchased from ATCC, the cell media were all EMEM+10% FBS, and the cells were cultured in an incubator at 37° C. under 5% CO2. On the first day, the cells in an exponential phase were collected. With a 10% css-FBS phenol red-free medium, the cell suspension was adjusted to a corresponding concentration, plated at 300000 cells/well and incubated for 3 days. After 3 days, the liquid in the well was aspirated, and a 10% css-FBS phenol red-free medium containing the compound to be tested was added and cultured in an incubator at 37° C. under 5% CO2. After 24 hours, 60 μl of RIPA lysis solution (containing 1× protease inhibitor cocktail) was added to each well, lysed on ice for 15 minutes, and then centrifuged at 4° C. for 10 minutes at 12000 g. The supernatant protein samples were collected, and protein quantification was performed by a BCA method. ERα was detected using fully automatic protein expression quantitative analysis, which involved diluting the protein to be tested to 1.5 mg/mL. 4 μL of the diluted protein samples were added to 1 μL of 5×Master Mix (provided in the kit), and the prepared samples were denatured at 95° C. for 5 min and placed on ice for use. Antibody Diluent II (provided in the kit) was used to dilute the primary antibody, in which the dilution ratios of ERα (CST, 13258S) and β-actin (CST, 3700) antibodies were 1:40 and 1:500, respectively, the secondary antibody was a 1:1 mixture of goat anti-mouse and goat anti-rabbit secondary antibodies, and the chromogenic solution was a 1:1 mixture of Lumino-S and Peroxide. The prepared reagents were successively added to an assay plate according to instructions of the kit and detected on an instrument. Western blot band processing was performed using “Compass for SW”, a fully automatic protein expression quantitative analysis software, in which western blot bands were automatically simulated based on signal values. The proportion of ERα relative to the solvent control at different drug concentrations according to equation (1), wherein Acompound was the relative peak area of ERα in the treated group, and Asolvent was the relative peak area of ERα in the solvent control group.
ERα%=Acompound/Asolvent×100 equation (1)
DC50 calculation: Calculation was performed according to equation (1), and using Graphpad Prism 8.0 software, the compound concentration DC50 values at which the degradation rate of ERα was 50% were calculated using a non-linear four-parameter function (Non linear regression (curve fit)) (Table 1).

[2] = test system: MCF-7 cells; assay: Inhibitory effect of compounds on the proliferation of MCF-7 cells (CellTiter-Glo, 7 days); type: cell-based; settings: Homo sapiens, MCF7, 168 h, 7 days incubation
Experimental: 1. Inhibitory Effect of Compounds on the Proliferation of MCF-7 Cells
Breast cancer cells MCF-7 were purchased from ATCC, the cell media were all EMEM+10% FBS, and the cells were cultured in an incubator at 37° C. under 5% CO2. On the first day, cells in the exponential growth phase were collected and cultured in a 10% css-FBS phenol red-free medium without cytokines for 3 days. After the completion of culture, a 10% css-FBS phenol red-free medium was used to adjust the cell suspension to the corresponding concentration and same was plated to 1000 cells/well. P-estradiol and compounds of different concentrations were added. A plate without adding any reagent was taken and used as Day0 with a reading value RLUday0, determined with CellTiter-Glo kit, placed in an incubator and incubated for 7 days. After the incubation was completed, according to operation instructions for a CellTiter-Glo kit (Promega, G7573), 50 μL of CellTiter-Glo solutions, which were pre-melted and equilibrated to room temperature, were added to each well, and the mixtures were uniformly mixed for 2 min using a microplate shaker. The plate was placed at room temperature for 10 min, and then […] signal values were measured using a microplate reader (PHERAstar FSX). Chemiluminescence readouts were processed using origin9.2 software and the DoseResp function was used to calculate the GIsovalue for the inhibitory activity of compounds on the proliferation of cells (Table 1). The results were processed according to equation (1), the inhibition rate of the compound at different concentrations was calculated, and the GI50 value of the compound with a proliferation rate of 50% was calculated using origin9.2 software, wherein RLUcompound was the readout of the treated group, and RLUcontrol was the average value of the solvent control group.
Growth %=(RLUcompound−RLUday0)/(RLUcontrol−RLUday0)×100 equation (1)

[3] = target: CYP2C19 (Homo sapiens (Human), UniProt P33261); assay: CYP450 enzyme inhibition test, human liver microsomes; type: in vitro ADME; settings: incubation concentration 0-50/100 μM
Sequence of CYP2C19 (P33261 whole entry): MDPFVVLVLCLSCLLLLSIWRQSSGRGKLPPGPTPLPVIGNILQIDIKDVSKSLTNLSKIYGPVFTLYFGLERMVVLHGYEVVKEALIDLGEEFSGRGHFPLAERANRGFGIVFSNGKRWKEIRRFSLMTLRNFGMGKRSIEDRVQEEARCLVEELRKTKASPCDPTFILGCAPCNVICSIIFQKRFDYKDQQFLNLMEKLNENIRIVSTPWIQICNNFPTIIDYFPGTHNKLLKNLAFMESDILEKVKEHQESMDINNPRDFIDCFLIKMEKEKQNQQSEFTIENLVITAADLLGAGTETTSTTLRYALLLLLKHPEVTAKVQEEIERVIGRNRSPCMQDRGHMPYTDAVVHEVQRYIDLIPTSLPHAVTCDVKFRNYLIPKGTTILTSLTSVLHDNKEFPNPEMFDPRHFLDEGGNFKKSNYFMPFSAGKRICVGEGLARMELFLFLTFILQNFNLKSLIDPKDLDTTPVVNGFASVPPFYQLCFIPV
Experimental: 6. CYP450 Enzyme Inhibition Test
The purpose of this study was to evaluate the effect of the test compound on the activity of five isoenzymes (CYP1A2, CYP2C9, CYP2C19, CYP2D6 and CYP3A4) of human liver microsomal cytochrome P450 (CYP) by using an in vitro testing system. The specific probe substrates of CYP450 isoenzymes were incubated with human liver microsomes and test compounds of different concentrations, and reduced nicotinamide adenine dinucleotide phosphate (NADPH) was added to initiate the reaction. After the completion of the reaction, the sample was treated and liquid chromatography-tandem mass spectrometry (LC-MS/MS) was used to quantitatively detect metabolites produced by specific substrates, changes in CYP enzyme activity were determined, and IC50 value was calculated to evaluate the inhibitory potential of the test compound on each CYP enzyme subtype.

Sequence of ERα (P03372 whole entry): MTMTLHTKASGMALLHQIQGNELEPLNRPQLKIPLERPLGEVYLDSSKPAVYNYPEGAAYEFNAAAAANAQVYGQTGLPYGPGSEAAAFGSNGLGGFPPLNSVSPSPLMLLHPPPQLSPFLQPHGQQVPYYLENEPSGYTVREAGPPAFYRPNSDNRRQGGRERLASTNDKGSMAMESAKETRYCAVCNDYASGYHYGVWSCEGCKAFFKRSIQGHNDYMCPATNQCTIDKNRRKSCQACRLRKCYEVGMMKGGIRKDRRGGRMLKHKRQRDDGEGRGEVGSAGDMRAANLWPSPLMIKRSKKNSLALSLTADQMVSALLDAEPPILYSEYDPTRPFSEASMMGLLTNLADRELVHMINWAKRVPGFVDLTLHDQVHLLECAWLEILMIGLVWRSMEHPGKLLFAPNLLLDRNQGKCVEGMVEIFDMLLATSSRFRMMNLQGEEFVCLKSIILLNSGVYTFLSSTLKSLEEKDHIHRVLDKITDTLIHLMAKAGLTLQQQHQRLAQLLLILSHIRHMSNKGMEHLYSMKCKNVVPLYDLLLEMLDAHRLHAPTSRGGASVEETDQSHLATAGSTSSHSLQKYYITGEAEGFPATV

Row | Structure (SMILES) | DC50 [1] [nM] | Dmax at 0.1 µM [1] [%] | GI50 [2] [nM] | IC50 [3] [nM]
1 | C[C@@H]1Cc2c([nH]c3ccc(F)cc23)[C@@H](c2c(F)cc(N[C@H]3CCN(CCCF)C3)cc2F)N1CC(F)(F)F [Compound 18, (S)—N-(3,5-difluoro-4-((1R,3R)-6-fluoro-3-methyl-2-(2,2,2-trifluoroethyl)-2,3,4,9-tetrahydro-1H-pyrido[3,4-b]indol-1-yl)phenyl)-1-(3-fluoropropyl)pyrrolidin-3-amine] | 0.47 | 70 |  | 
2 | C[C@@H]1Cc2c([nH]c3cc(F)ccc23)[C@@H](c2c(F)cc(N[C@H]3CCN(CCCF)C3)cc2F)N1CC(F)(F)F [Compound 32, (S)—N-(3,5-difluoro-4-((1R,3R)-7-fluoro-3-methyl-2-(2,2,2-trifluoroethyl)-2,3,4,9-tetrahydro-1H-pyrido[3,4-b]indol-1-yl)phenyl)-1-(3-fluoropropyl)pyrrolidin-3-amine] | 1.23 | 88 |  | 
3 | C#Cc1ccc2c3c([nH]c2c1)[C@@H](c1c(F)cc(N[C@H]2CCN(CCCF)C2)cc1F)N(CC(F)(F)F)[C@H](C)C3 [Compound 43, (S)—N-(4-((1R,3R)-7-ethynyl-3-methyl-2-(2,2,2-trifluoroethyl)-2,3,4,9-tetrahydro-1H-pyrido[3,4-b]indol-1-yl)-3,5-difluorophenyl)-1-(3-fluoropropyl)pyrrolidin-3-amine] |  |  | 0.219 | > 50000
